According to US8354436B2 (4SC Discovery GmbH, priority 2011, dated 2013):
Where two headings read alike, the source gives them in different places.

Experiments:
Format in all cases: cell-based
IL-17FF = IL-17FF production by PHA-stimulated human PBMC (human IL-17F ELI-Pair)
Summary of the method: (§1)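 Compounds tested on PHA (2 μg/ml)-stimulated human PBMC, 1×10^5 cells/well, 48 h, at 10, 1, 0.1 and 0.01 μM or semilog titration for IC50. Cytokines in culture supernatant: IL-17AA/AF by Luminex BioPlex; IL-17AA, IL-17FF, IFN-γ by separate ELISAs.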

IFN-γ = IFN-γ production by PHA-stimulated human PBMC (OptEIA human IFN-g ELISA)
Summary of the method: as §1

[1] = tested on: PBMC from healthy human donors; test: T cell proliferation assay (PHA-stimulated human PBMC, BrdU ELISA); conditions: 48 hours
Summary of the method: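 Healthy-donor PBMC isolated on Ficoll, seeded at 1×10⁵ cells/well in RPMI with 10% dialysed FCS, stimulated with 2 μg/ml PHA in presence of test compound. Proliferation read after 48 hours by BrdU-incorporation ELISA.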

[2] = PHA-stimulated human PBMC, 48 hours, column B, read-out: IC50 (IL-17FF)
[3] = PHA-stimulated human PBMC, 48 hours, column C, read-out: IC50 (IFNγ)
[4] = PHA-stimulated human PBMC, column D, read-out: IC50 (Tcell proliferation)
[5] = human PBMC, 2 μg/ml PHA, 48 hours, read-out: B: IC50 (IL-17FF)
[6] = human PBMC, 2 μg/ml PHA, 48 hours, read-out: C: IC50 (IFNγ)
[7] = human PBMC, 2 μg/ml PHA, read-out: D: IC50 (Tcell proliferation)

Compound	IC50 (IL-17FF; [2]) [nM]	IC50 (IFN-γ; [3]) [nM]	IC50 [1, 4] [nM]	IC50 (IL-17FF; [5]) [nM]	IC50 (IFN-γ; [6]) [nM]	IC50 [1, 7] [nM]	IC50 (IL-17FF; Homo sapiens, PBMC, 48 h, read-out: IC50 (IL-17FF)) [nM]	IC50 (IFN-γ; Homo sapiens, PBMC, 48 h, read-out: IC50 (IFNγ)) [nM]
CNC(=S)c1c(-c2c(F)cccc2Cl)noc1-c1cnn(-c2cccc(F)c2)c1C(F)(F)F [Example I-122, 3-(2-chloro-6-fluorophenyl)-5-(1-(3-fluorophenyl)-5-(trifluoromethyl)-1H-pyrazol-4-yl)-N-methylisoxazole-4-carbothioamide]	100 to 1000	100 to 1000	100 to 1000					
Fc1cccc(Cl)c1-c1noc(-c2cnn(-c3ccccn3)c2C(F)(F)F)c1-c1nnco1 [Example B-25, 2-(3-(2-chloro-6-fluorophenyl)-5-(1-(pyridin-2-yl)-5-(trifluoromethyl)-1H-pyrazol-4-yl)isoxazol-4-yl)-1,3,4-oxadiazole]				100 to 1000	10 to 100	10 to 100		
CCOC(=O)c1c(-c2onc(-c3c(F)cccc3Cl)c2C(=O)OC)cnn1-c1cccc(F)c1 [Example I-8, methyl 3-(2-chloro-6-fluorophenyl)-5-(5-(ethoxycarbonyl)-1-(3-fluorophenyl)-1H-pyrazol-4-yl)isoxazole-4-carboxylate]	100 to 1000	100 to 1000	100 to 1000					
CC(C)OC(=O)c1c(-c2c(F)cccc2Cl)noc1-c1cnn(-c2cccc(Cl)c2)c1C(F)(F)F [IB-31, isopropyl 3-(2-chloro-6-fluorophenyl)-5-(1-(3-chlorophenyl)-5-(trifluoromethyl)-1H-pyrazol-4-yl)isoxazole-4-carboxylate]	< 10	< 10	< 10					
COC(=O)c1c(-c2ccc(Cl)cc2Cl)noc1-c1cnn(-c2cccc(F)c2)c1C(F)(F)F [Example I-111, methyl 3-(2,4-dichlorophenyl)-5-(1-(3-fluorophenyl)-5-(trifluoromethyl)-1H-pyrazol-4-yl)isoxazole-4-carboxylate]	1000 to 10000	1000 to 10000	100 to 1000					
Fc1cccc(-n2ncc(-c3onc(-c4c(F)cccc4Cl)c3-c3nnco3)c2C(F)(F)F)c1 [Example 7]				< 10	< 10	10 to 100		
Fc1cccc(Cl)c1-c1noc(-c2cnn(-c3ccccc3)c2C(F)(F)F)c1Br [Example I-145, 4-bromo-3-(2-chloro-6-fluorophenyl)-5-(1-phenyl-5-(trifluoromethyl)-1H-pyrazol-4-yl)isoxazole]	10 to 100	< 10	10 to 100					
CNC(=O)c1c(-c2c(Cl)cccc2Cl)noc1-c1cnn(-c2cccc(F)c2)c1C(F)(F)F [Example I-110, 3-(2,6-dichlorophenyl)-5-(1-(3-fluorophenyl)-5-(trifluoromethyl)-1H-pyrazol-4-yl)-N-methylisoxazole-4-carboxamide]	10 to 100	10 to 100	10 to 100					
COC(=O)c1c(-c2cccc(F)c2)noc1-c1cnn(-c2cccc(F)c2)c1C(F)(F)F [Example I-106, methyl 3-(3-fluorophenyl)-5-(1-(3-fluorophenyl)-5-(trifluoromethyl)-1H-pyrazol-4-yl)isoxazole-4-carboxylate]	1000 to 10000	1000 to 10000	1000 to 10000					
COC(=O)c1c(-c2c(F)cccc2Cl)noc1-c1cnn(-c2cccc(Cl)c2)c1 [Example I-115, methyl 3-(2-chloro-6-fluorophenyl)-5-(1-(3-chlorophenyl)-1H-pyrazol-4-yl)isoxazole-4-carboxylate]	1000 to 10000	1000 to 10000	1000 to 10000					
CCOC(=O)c1c(-c2ccncc2F)noc1-c1cnn(-c2cccc(NC(C)=O)c2)c1C(F)(F)F [IB-6, ethyl 5-(1-(3-acetamidophenyl)-5-(trifluoromethyl)-1H-pyrazol-4-yl)-3-(3-fluoropyridin-4-yl)isoxazole-4-carboxylate]	10 to 100	< 10	100 to 1000					
COC(=O)c1c(-c2c(F)cccc2Cl)noc1-c1cnn(-c2ccccc2Cl)c1C(F)(F)F [IB-20, methyl 3-(2-chloro-6-fluorophenyl)-5-(1-(2-chlorophenyl)-5-(trifluoromethyl)-1H-pyrazol-4-yl)isoxazole-4-carboxylate]	1000 to 10000	1000 to 10000	1000 to 10000					
CCOC(=O)c1c(-c2c(F)cccc2Cl)noc1-c1cnn(-c2ccccc2[N+](=O)[O-])c1C(F)(F)F [IB-95, 3-(2-chloro-6-fluorophenyl)-5-(1-(2-nitrophenyl)-5-(trifluoromethyl)-1H-pyrazol-4-yl)isoxazole-4-carboxylate]	10 to 100	10 to 100	100 to 1000					
O=C(c1c(-c2c(F)cccc2Cl)noc1-c1cnn(-c2cccc(F)c2)c1C(F)(F)F)N1CCOCC1 [Example I-127, (3-(2-chloro-6-fluorophenyl)-5-(1-(3-fluorophenyl)-5-(trifluoromethyl)-1H-pyrazol-4-yl)isoxazol-4-yl)(morpholino)methanone]	100 to 1000	100 to 1000	1000 to 10000					
COC(=O)c1c(-c2ccccc2)noc1-c1cnn(-c2cccc(Cl)c2)c1C(F)(F)F [IB-30, methyl 5-(1-(3-chlorophenyl)-5-(trifluoromethyl)-1H-pyrazol-4-yl)-3-phenylisoxazole-4-carboxylate]	100 to 1000	100 to 1000	100 to 1000					
CCOC(=O)c1c(-c2c(F)cccc2Cl)noc1-c1cnn(-c2ccc(NC(C)=O)cc2)c1C(F)(F)F [IB-99, ethyl 5-(1-(4-acetamidophenyl)-5-(trifluoromethyl)-1H-pyrazol-4-yl)-3-(2-chloro-6-fluorophenyl)isoxazole-4-carboxylate]	1000 to 10000	1000 to 10000	1000 to 10000					
COC(=O)c1c(-c2c(F)cccc2Cl)noc1-c1cnn(-c2cc(Cl)cc(Cl)c2)c1C(F)(F)F [Example I-68, methyl 3-(2-chloro-6-fluorophenyl)-5-(1-(3,5-dichlorophenyl)-5-(trifluoromethyl)-1H-pyrazol-4-yl)isoxazole-4-carboxylate]	10 to 100	10 to 100	10 to 100					
COc1cccc(Cl)c1-c1noc(-c2cnn(-c3cccnc3)c2C(F)(F)F)c1-c1cnco1 [Example B-31, 3-(2-chloro-6-methoxyphenyl)-4-(oxazol-5-yl)-5-(1-(pyridin-3-yl)-5-(trifluoromethyl)-1H-pyrazol-4-yl)isoxazole]				1000 to 10000	100 to 1000	1000 to 10000		
COC(=O)c1c(-c2c(Cl)cccc2Cl)noc1-c1cnn(-c2cccc(Cl)c2)c1C(F)(F)F [IB-75, methyl 5-(1-(3-chlorophenyl)-5-(trifluoromethyl)-1H-pyrazol-4-yl)-3-(2,6-dichlorophenyl)isoxazole-4-carboxylate]	< 10	< 10	< 10					
Fc1ccccc1-n1ncc(-c2onc(-c3c(F)cccc3Cl)c2-c2nccs2)c1C(F)(F)F [Example B-30, 3-(2-chloro-6-fluorophenyl)-5-(1-(2-fluorophenyl)-5-(trifluoromethyl)-1H-pyrazol-4-yl)-4-(thiazol-2-yl)isoxazole]				10 to 100	10 to 100	10 to 100		
CNC(=O)c1c(-c2c(F)cccc2Cl)noc1-c1cnn(-c2cccnc2)c1C(F)(F)F [IB-55, 3-(2-chloro-6-fluorophenyl)-N-methyl-5-(1-(pyridin-3-yl)-5-(trifluoromethyl)-1H-pyrazol-4-yl)isoxazole-4-carboxamide]	1000 to 10000	1000 to 10000	1000 to 10000					
CCOC(=O)c1c(-c2c(Cl)cncc2Cl)noc1-c1cnn(-c2ccncc2)c1C(F)(F)F [IB-10, ethyl 3-(3,5-dichloropyridin-4-yl)-5-(1-(pyridin-4-yl)-5-(trifluoromethyl)-1H-pyrazol-4-yl)isoxazole-4-carboxylate]	100 to 1000	100 to 1000	100 to 1000					
CCOC(=O)c1c(-c2onc(-c3c(F)cccc3Cl)c2C(=O)OC)cnn1-c1cccc(C#N)c1 [Example I-13, methyl 3-(2-chloro-6-fluorophenyl)-5-(1-(3-cyanophenyl)-5-(ethoxycarbonyl)-1H-pyrazol-4-yl)isoxazole-4-carboxylate]	100 to 1000	100 to 1000	100 to 1000					
CCOC(=O)c1c(-c2c(F)cccc2Cl)noc1-c1cnn(-c2ccccc2Cl)c1C(F)(F)F [IB-33, ethyl 3-(2-chloro-6-fluorophenyl)-5-(1-(2-chlorophenyl)-5-(trifluoromethyl)-1H-pyrazol-4-yl)isoxazole-4-carboxylate]			100 to 1000				100 to 1000	100 to 1000
